Source: US6737383B1, “Herbicidal oxadiazolidines” (priority 1999, dated 2004)

Columns and labels:
crabgrass = assay: Test B pre/postemergence crabgrass; type: in vivo, Digitaria sanguinalis
Procedure, shortened: (§1)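 Test chemicals in a non-phytotoxic solvent mixture with surfactant were sprayed preemergence onto planted seeds and postemergence onto plants 2 to 18 cm tall (1- to 4-leaf stage). After twelve to sixteen days in a greenhouse, injury was visually rated against untreated controls from 0 (no effect) to 10 (complete control).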

pigweed = assay: Test B pre/postemergence pigweed; type: in vivo, Amaranthus retroflexus
Procedure, shortened: as §1

cocklebur = assay: Test B pre/postemergence cocklebur; type: in vivo, Xanthium strumarium
Procedure, shortened: as §1

giant foxtail = assay: Test B pre/postemergence giant foxtail; type: in vivo, Setaria faberii
Procedure, shortened: as §1

purple nutsedge = assay: Test B pre/postemergence purple nutsedge; type: in vivo, Cyperus rotundus
Procedure, shortened: as §1

duck salad = assay: Test B flood test duck salad; type: in vivo, Heteranthera limosa
Procedure, shortened: (§2)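 Plants were grown to the 2-leaf stage before treatment with test chemical, then held in a greenhouse for twelve to sixteen days. Injury was visually rated against untreated controls on a 0–10 scale, where 0 is no effect and 10 is complete control.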

morningglory = assay: Test B pre/postemergence morningglory; type: in vivo, Ipomoea hederacea
Procedure, shortened: as §1

corn = assay: Test B pre/postemergence corn; type: in vivo, Zea mays
Procedure, shortened: as §1

sugar beet = assay: Test B pre/postemergence sugar beet; type: in vivo, Beta vulgaris
Procedure, shortened: as §1

velvetleaf = assay: Test B pre/postemergence velvetleaf; type: in vivo, Abutilon theophrasti
Procedure, shortened: as §1

rice = assay: Test B flood test rice; type: in vivo, Oryza sativa
Procedure, shortened: as §2

smallflower flatsedge = assay: Test B flood test smallflower flatsedge; type: in vivo, Cyperus difformis
Procedure, shortened: as §2

soybean = assay: Test B pre/postemergence soybean; type: in vivo, Glycine max
Procedure, shortened: as §1

wild oat = assay: Test B pre/postemergence wild oat; type: in vivo, Avena fatua
Procedure, shortened: as §1

wheat = assay: Test B pre/postemergence wheat; type: in vivo, Triticum aestivum
Procedure, shortened: as §1

rape = assay: Test B pre/postemergence rape; type: in vivo, Brassica napus
Procedure, shortened: as §1

[1] = Postemergence, Rate 62 g/ha, scale 0 to 10, 0 is no effect, 10 is complete control
[2] = Postemergence, Rate 250 g/ha, scale 0 to 10, 0 no effect, 10 complete control
[3] = Preemergence, Rate 62 g/ha, scale 0 to 10, 0 is no effect, 10 is complete control
[4] = Preemergence, Rate 125 g/ha, scale 0 to 10 (0 no effect, 10 complete control)
[5] = Preemergence, Rate 250 g/ha, scale of 0 to 10 where 0 is no effect and 10 is complete control
[6] = Preemergence, Rate 500 g/ha, scale 0 (no effect) to 10 (complete control)
[7] = Rate 125 g/ha, Postemergence, scale 0 to 10, 0 no effect, 10 complete control
[8] = Rate 500 g/ha, Postemergence, 0 to 10 scale (0 no effect, 10 complete control)
[9] = Rate 125 g/ha, Postemergence section (flood test species), scale 0 to 10, 0 no effect, 10 complete control
[10] = Rate 500 g/ha, Postemergence section of Table B, 0 to 10 scale (0 no effect, 10 complete control)
[11] = flood test, listed under Postemergence, Rate 250 g/ha, scale 0 to 10, 0 no effect, 10 complete control

## CC(C)N(C(=O)n1oc(=O)n(-c2ccc(Cl)cc2C(F)(F)F)c1=O)c1ccc(F)cc1 [Compound 20]
crabgrass; [1]
  Crabgrass plant response rating: 0
crabgrass; [2]
  Crabgrass plant response rating: 3
crabgrass; [3]
  Plant response rating, Crabgrass: 1
crabgrass; [4]
  Plant response rating, Crabgrass: 2
crabgrass; [5]
  Plant response rating, Crabgrass: 6
crabgrass; [6]
  Crabgrass plant response rating: 7
crabgrass; [7]
  Crabgrass plant response rating: 0
crabgrass; [8]
  Crabgrass plant response rating: 7
pigweed; [1]
  Redroot pigweed plant response rating: 3
pigweed; [2]
  Redroot pigweed plant response rating: 3
pigweed; [3]
  Plant response rating, Redroot pigweed: 0
pigweed; [4]
  Plant response rating, Redroot pigweed: 2
pigweed; [5]
  Plant response rating, Redroot pigweed: 4
pigweed; [6]
  Redroot pigweed plant response rating: 9
pigweed; [7]
  Redroot pigweed plant response rating: 3
pigweed; [8]
  Redroot pigweed plant response rating: 4
cocklebur; [1]
  Cocklebur plant response rating: 0
cocklebur; [2]
  Cocklebur plant response rating: 0
cocklebur; [3]
  Plant response rating, Cocklebur: 0
cocklebur; [4]
  Plant response rating, Cocklebur: 0
cocklebur; [5]
  Plant response rating, Cocklebur: 0
cocklebur; [6]
  Cocklebur plant response rating: 0
cocklebur; [7]
  Cocklebur plant response rating: 0
cocklebur; [8]
  Cocklebur plant response rating: 0
Giant foxtail; [1]
  Giant foxtail plant response rating: 0
Giant foxtail; [2]
  Giant foxtail plant response rating: 1
Giant foxtail; [3]
  Plant response rating, Giant foxtail: 3
Giant foxtail; [4]
  Plant response rating, Giant foxtail: 5
Giant foxtail; [5]
  Plant response rating, Giant foxtail: 7
Giant foxtail; [6]
  Giant foxtail plant response rating: 9
Giant foxtail; [7]
  Giant foxtail plant response rating: 0
Giant foxtail; [8]
  Giant foxtail plant response rating: 1
Purple nutsedge; [1]
  Nutsedge plant response rating: 0
Purple nutsedge; [2]
  Nutsedge plant response rating: 0
Purple nutsedge; [3]
  Plant response rating, Nutsedge: 0
Purple nutsedge; [4]
  Plant response rating, Nutsedge: 0
Purple nutsedge; [5]
  Plant response rating, Nutsedge: 0
Purple nutsedge; [6]
  Nutsedge plant response rating: 0
Purple nutsedge; [7]
  Nutsedge plant response rating: 0
Purple nutsedge; [8]
  Nutsedge plant response rating: 0
Duck salad; [1]
  Ducksalad plant response rating: 0
Duck salad; [9]
  Ducksalad plant response rating: 0
Duck salad; [10]
  Ducksalad plant response rating: 0
Duck salad; [11]
  Ducksalad plant response rating: 0
morningglory; [1]
  Morningglory plant response rating: 4
morningglory; [2]
  Morningglory plant response rating: 7
morningglory; [3]
  Plant response rating, Morningglory: 0
morningglory; [4]
  Plant response rating, Morningglory: 0
morningglory; [5]
  Plant response rating, Morningglory: 0
morningglory; [6]
  Morningglory plant response rating: 0
morningglory; [7]
  Morningglory plant response rating: 7
morningglory; [8]
  Morningglory plant response rating: 8
corn; [1]
  Corn plant response rating: 0
corn; [2]
  Corn plant response rating: 0
corn; [3]
  Plant response rating, Corn: 0
corn; [4]
  Plant response rating, Corn: 0
corn; [5]
  Plant response rating, Corn: 0
corn; [6]
  Corn plant response rating: 0
corn; [7]
  Corn plant response rating: 0
corn; [8]
  Corn plant response rating: 0
Sugar beet; [1]
  Sugarbeets plant response rating: 0
Sugar beet; [3]
  Plant response rating, Sugarbeets: 0
Sugar beet; [4]
  Plant response rating, Sugarbeets: 0
Sugar beet; [5]
  Plant response rating, Sugarbeets: 2
Sugar beet; [6]
  Sugarbeets plant response rating: 7
Sugar beet; [7]
  Sugarbeets plant response rating: 0
velvetleaf; [1]
  Velvetleaf plant response rating: 0
velvetleaf; [2]
  Velvetleaf plant response rating: 0
velvetleaf; [3]
  Plant response rating, Velvetleaf: 0
velvetleaf; [4]
  Plant response rating, Velvetleaf: 0
velvetleaf; [5]
  Plant response rating, Velvetleaf: 0
velvetleaf; [6]
  Velvetleaf plant response rating: 0
velvetleaf; [7]
  Velvetleaf plant response rating: 0
rice; [1]
  Rice plant response rating: 0
rice; [9]
  Rice plant response rating: 0
rice; [10]
  Rice plant response rating: 2
rice; [11]
  Rice plant response rating: 0
Smallflower flatsedge; [1]
  S. Flatsedge plant response rating: 0
Smallflower flatsedge; [9]
  S. Flatsedge plant response rating: 0
Smallflower flatsedge; [11]
  S. Flatsedge plant response rating: 0
soybean; [1]
  Soybean plant response rating: 3
soybean; [2]
  Soybean plant response rating: 3
soybean; [3]
  Plant response rating, Soybean: 0
soybean; [4]
  Plant response rating, Soybean: 0
soybean; [5]
  Plant response rating, Soybean: 0
soybean; [6]
  Soybean plant response rating: 0
soybean; [7]
  Soybean plant response rating: 3
Wild oat; [1]
  Wild oats plant response rating: 0
Wild oat; [2]
  Wild oats plant response rating: 0
Wild oat; [4]
  Plant response rating, Wild oats: 0
Wild oat; [5]
  Plant response rating, Wild oats: 0
Wild oat; [6]
  Wild oats plant response rating: 0
Wild oat; [7]
  Wild oats plant response rating: 0
wheat; [1]
  Wheat plant response rating: 0
wheat; [2]
  Wheat plant response rating: 0
wheat; [3]
  Plant response rating, Wheat: 0
wheat; [4]
  Plant response rating, Wheat: 0
wheat; [5]
  Plant response rating, Wheat: 0
wheat; [6]
  Wheat plant response rating: 0
wheat; [7]
  Wheat plant response rating: 0
rape; [1]
  Rape plant response rating: 0
rape; [2]
  Rape plant response rating: 0
rape; [3]
  Plant response rating, Rape: 0
rape; [4]
  Plant response rating, Rape: 0
rape; [5]
  Plant response rating, Rape: 0
rape; [6]
  Rape plant response rating: 0
rape; [7]
  Rape plant response rating: 0
rape; [8]
  Rape plant response rating: 0
